Where two headings read alike, the source gives them in different places.

For one data set, the system named is P-gp (MDR1). The data set can be described thus: Permeability in MDR1‐MDCK cells with pgp inhibitor. The format is in vitro ADME. The settings on record: dog. How it is done:
Permeability in MDR1‐MDCK cells in the presence of pgp inhibitor GF120918 was high at 248 and 240 nm/s for the apical to basal and basal to apical directions, respectively (N53531‐23 for DI).
MDR1‐MDCK cells were used between passage numbers 6–30. Cells were seeded onto Millipore Multiscreen Transwell plates at 3.4 × 10^5 cells/cm^2. The cells were cultured in DMEM and media was changed on day 3. On day 4 the permeability study was performed. Cell culture and assay incubations were carried out at 37°C in an atmosphere of 5% v/v CO2 with a relative humidity of 95%. On the day of the assay, the monolayers were prepared by rinsing both apical and basolateral surfaces twice with Hanks Balanced Salt Solution (HBSS) at the desired pH warmed to 37°C. Cells were then incubated with HBSS at the desired pH in both apical and basolateral compartments for 40 min to stabilise physiological parameters. Where applicable, a P‐gp inhibitor (elacridar, 2 µM) was included on both sides of the monolayer for the equilibration period. For assessment of apical‐basolateral permeability, HBSS was removed from the apical compartment and replaced with test compound dosing solution. The apical compartment insert was then placed into a companion plate containing fresh buffer (containing 0.5% v/v DMSO or, where applicable, a P‐gp inhibitor, maintaining a 0.5% v/v DMSO concentration). […]

Data set [1] deals with Z α1‐antitrypsin polymers in CHO‐TET‐ON‐Z‐A1AT cells. Nature of the data set: Intracellular Z α1‐antitrypsin polymer formation in CHO‐TET‐ON‐Z‐A1AT cells (2C1 staining). The format is cell-based. How it is done:
The ability of GSK716 to block Z α1‐antitrypsin polymerisation in the ER during folding was assessed by adding GSK716 to CHO‐TET‐ON‐Z‐A1AT cells (Ordóñez et al, 2013) with simultaneous induction of Z α1‐antitrypsin expression using doxycycline. […] Similar potency between the effects on secretion and polymerisation was observed throughout members of the lead series supporting the hypothesis that these effects are caused by the same pharmacological mode of action.
Figure 2 GSK716 inhibits polymerisation of Z α1‐antitrypsin in cell models of disease • A GSK716 was added to CHO‐TET‐ON‐Z‐A1AT cells (Ordóñez et al, 2013) with simultaneous induction of Z α1‐antitrypsin expression using doxycycline, and polymer load was quantified with the 2C1 monoclonal antibody that is specific to pathological polymers of α1‐antitrypsin (Miranda et al, 2010). […] For every time point, NP‐40‐soluble and NP‐40‐insoluble fractions were separated and immunoprecipitated with the 2C1 mAb and resolved by 4–12% w/v SDS–PAGE and α1‐antitrypsin detected by immunoblotting. […] Cell viability was measured by Cell Counting Kit‐8. […] Samples were resolved by 4–12% w/v acrylamide SDS–PAGE and detected by autoradiography. • H The graphs show the effect of GSK716 on intracellular and extracellular Z α1‐antitrypsin (mean ± SEM, n = 2). […]

In the next data set the test system is serum albumin. The data set can be described thus: Circulating serum albumin in Z α1‐antitrypsin transgenic mice. The format is in vivo, mouse. The settings on record: after 5 days of dosing. How it is done:
A significant fraction of the total Z α1‐antitrypsin in the circulation is in the polymeric conformation (Tan et al, 2014). There are no antibodies that are specific for monomeric Z α1‐antitrypsin and so to directly determine its concentration, a deconvolution method was developed based on immunoassays with antibodies for either total or polymeric α1‐antitrypsin, and calibration curves with purified monomeric and polymeric Z α1‐antitrypsin. Monomeric Z α1‐antitrypsin was measured in plasma samples following 6 days of dosing, and levels were normalised to each animals’ pre‐dose control levels to account for the natural variation of Z α1‐antitrypsin between animals. […] Total drug levels and changes in Z α1‐antitrypsin following 3 days of dosing were indistinguishable from those following 6 days of dosing. There was no effect on circulating serum albumin after 5 days of dosing which provides evidence that GSK716 is specific for Z α1‐antitrypsin. Moreover, the effects are not mediated by metabolites of GSK716 as the major metabolites have much reduced or no binding to α1‐antitrypsin.

`CCC[C@@H](NC(=O)c1cccc2c1CC(=O)N2)[C@@H](O)c1cccc(F)c1C` [GSK716]: the Papp at 60 min in the data set with P-gp (MDR1) (with pgp inhibitor GF120918, read-out: permeability, apical to basal) stood at 24.8 ×10⁻⁶ cm/s; in the data set with P-gp (MDR1) (with pgp inhibitor GF120918, read-out: permeability, basal to apical), 24 ×10⁻⁶ cm/s. Further, the “intracellular formation of Z α1‐antitrypsin polymers in comparison with controls” value in data set [1] is “completely blocked”. Besides, the IC50 in data set [1] (doxycycline induction, n = 71, read-out: mean pIC50, intracellular formation of Z α1‐antitrypsin polymers (converted)) is 501 nM. Further, the “effect on circulating serum albumin” value in the data set with serum albumin is on record as “no effect”.
